Laboratory results taken from paper PMC7570544, “Biological Activities and ADMET-Related Properties of Novel Set of Cinnamanilides” (Molecules, 2020).
≈ marks a conversion by molar mass, not a printed value. Where “and” joins values, the source holds several entries; their conditions need not be identical. Equal entries are not always repeated.

Assays:
[1] = test system: Mycobacterium tuberculosis H37Ra/ATCC 25177; assay: In vitro antimycobacterial evaluation; type: cell-based; conditions: M. tuberculosis H37Ra
From the text: Isoniazid (Sigma) was used as the standard.

[2] = RP-HPLC, 72:28 MeOH:H2O
[3] = test system: Staphylococcus aureus ATCC 29213; assay: In vitro antibacterial evaluation, broth microdilution MIC, reference strain; type: cell-based; conditions: S. aureus ATCC 29213
[4] = physchem
[5] = test system: methicillin-resistant Staphylococcus aureus (MRSA) SA 630; assay: In vitro antibacterial evaluation, broth microdilution MIC, MRSA isolate SA 630; type: cell-based; conditions: clinical isolate MRSA SA 630
[6] = test system: methicillin-resistant Staphylococcus aureus (MRSA) 63718; assay: In vitro antibacterial evaluation, broth microdilution MIC, MRSA isolate 63718; type: cell-based; conditions: clinical isolate MRSA 63718
[7] = test system: THP1-Blue™ NF-κB cell line; assay: In vitro cell viability assay (WST-1); type: cell-based; conditions: Homo sapiens; THP1-Blue NF-κB cells, 24 h incubation, WST-1, mean ± SEM, n = 6; read-out: Tox IC50 ± SEM
Experimental: The cytotoxic effect of the tested compounds was specified on THP1-Blue™ NF-κB cell line (Invivogen; San Diego, CA, USA), as described previously. […] The final concentration of DMSO was 0.1% (v/v) in each well. The viability analysis was performed after 24 h incubation with the tested substances using the WST-1 Cell Proliferation Reagent kit (Roche Diagnostics, Basel, Switzerland) according to the manufacturer’s manual. […] The IC50 values were calculated by four-parameter logistic (4PL) analysis from obtained viability curves by GraphPad Prism 8.0.1 (San Diego, CA, USA) software.

[8] = test system: NF-κB in THP1-Blue™ NF-κB cells; assay: Determination of NF-κB activity after LPS stimulation (Quanti-Blue); type: cell-based, human; conditions: 1 µM compound, LPS 1 µg/mL; for increase of NF-κB activity / decrease of NF-κB activity: 1 h pretreatment, 24 h, vs DMSO group
Experimental: To evaluate the anti-inflammatory potential of novel compounds, their ability to attenuate the lipopolysaccharide (LPS)-activated pro-inflammatory transcription nuclear factor (NF)-κB was measured as was described previously. Briefly, THP1-Blue™ NF-κB cells were pretreated by tested compounds dissolved in DMSO in the non-toxic concentration 1 µM for 1 h. After LPS (1 µg/mL) stimulation, the NF-κB activity was evaluated by Quanti-Blue medium (Invivogen) according to the manufacturer’s instructions. The results from 3 independent experiments performed in triplicate (n = 9) were analyzed by GraphPad Prism 8.0.1 software. The outlaying values were excluded by ROUT algorithms (Q = 5%).
Figure 1 Effect of tested compounds on activity of transcription factor NF-κB. […] Then, lipopolysaccharide (LPS) 1 µg/mL was added to trigger the NF-κB activation. The activity of NF-κB was measured 24 h after LPS stimulation using QuantiBlue™ assay. The graph represents mean ± SEM (n = 9). […] Groups were compared with the help of the one-way ANOVA test followed by Fisher’s LSD multiple comparison test. * indicates statistical significance (p < 0.05) to DMSO group; ** indicates statistical significance (p < 0.01) to DMSO group; *** indicates statistical significance (p < 0.001) to DMSO group; **** indicates statistical significance (p < 0.0001) to DMSO group. CA—cinnamic acid.

[9] = Lipophilicity determination by RP-TLC; type: physicochemical; set-up: key to RM (MeOH:H2O): RM = log(1/RF - 1), from RP-18 TLC; conditions: for RM (MeOH:H2O): 72:28 MeOH:H2O; for RM (pH 7.4): 72:28 MeOH:NaOAc buffer (pH 7.4)
Experimental: RM values were determined from the RP-18 TLC measurements. […] The volatiles were carefully evaporated, and the plate was developed by MeOH (100%) or MeOH: H2O-HPLC (72:28 v/v) or MeOH: NaOAc buffer, pH 7.4 (72:28 v/v). After drying, the spots were visualized under UV (λ = 365 nm). RM data were obtained from equation: RM = log(1/RF-1). Each experiment was repeated three times.

[10] = test system: S. aureus ATCC 29213; assay: MTT assay of bacterial viability; conditions: Staphylococcus aureus, ATCC29213, read-out: viability of S. aureus ATCC 29213 (MTT)
[11] = test system: S. aureus and MRSA isolates; assay: Minimum bactericidal concentration (MBC) by subcultivation
[12] = Staphylococcus aureus, ATCC29213

O=C(/C=C/c1ccccc1)Nc1c(F)cc(F)cc1F [Compound 2, (2E)-3-Phenyl-N-(2,4,6-trifluorophenyl)prop-2-enamide]
MIC [1]: > 462 µM | Logk [2]: −0.0831 | MIC [3, 12]: > 924 µM | chromatographic logD ([4]; pH 6.5): 0.0107 | chromatographic logD ([4]; pH 7.4): 0.026 | MIC [5]: > 924 µM | MIC [6]: > 924 µM | IC50 [7]: > 20 µM | increase of NF-κB activity [8]: 10–15% | RM (MeOH:H2O) [9]: 0.1218 | RM (pH 7.4) [9]: 0.1951 | RM (100% MeOH) [9]: −0.6536

O=C(/C=C/c1ccccc1)Nc1cc(C(F)(F)F)ccc1Br [Compound 13, (2E)-N-[2-Bromo-5-(trifluoromethyl)phenyl]-3-phenylprop-2-enamide]
MIC [1]: > 348 µM | Logk [2]: 0.5561 | MIC [3, 12]: > 696 µM | chromatographic logD ([4]; pH 6.5): 0.594 | chromatographic logD ([4]; pH 7.4): 0.616 | MIC [5]: > 696 µM | MIC [6]: > 696 µM | IC50 [7]: > 20 µM | anti-inflammatory potential (LPS-induced NF-κB activation), in words [8]: insignificant anti-inflammatory potential | RM (MeOH:H2O) [9]: 0.7194 | RM (pH 7.4) [9]: 0.5619 | RM (100% MeOH) [9]: −0.4325

O=C(/C=C/c1ccccc1)Nc1ccc(C(F)(F)F)c(F)c1 [Compound 10, (2E)-N-[3-Fluoro-4-(trifluoromethyl)phenyl]-3-phenylprop-2-enamide]
MIC [1]: > 414 µM | Logk [2]: 0.5789 | MIC [3]: 25.9 µM (≈ 8.01 µg/mL) | MIC [3, 12]: 8 µg/mL and 25.9 µM | chromatographic logD ([4]; pH 6.5): 0.61 | chromatographic logD ([4]; pH 7.4): 0.633 | MIC [5]: 12.9 µM (≈ 3.99 µg/mL) | viability at 25.9 µM [10]: 13.4 ± 0.1% | MIC [6]: 25.9 µM (≈ 8.01 µg/mL) | IC50 [7]: > 20 µM | MBC ([11]; S. aureus and MRSA isolates, compared with MIC): equal to the MIC values | bacteriostatic/bactericidal classification ([11]; bactericidal if MBC/MIC ≤4): bactericidal | increase of NF-κB activity [8]: 10–15% | RM (MeOH:H2O) [9]: 0.7923 | RM (pH 7.4) [9]: 0.5960 | RM (100% MeOH) [9]: −0.5032

O=C(/C=C/c1ccccc1)Nc1c(Br)cc(F)c(Cl)c1Br [Compound 20, (2E)-N-(2,6-Dibromo-3-chloro-4-fluorophenyl)-3-phenylprop-2-enamide]
MIC [1]: > 298 µM | Logk [2]: 0.3139 | MIC [3, 12]: > 595 µM | chromatographic logD ([4]; pH 6.5): 0.37 | chromatographic logD ([4]; pH 7.4): 0.392 | MIC [5]: > 595 µM | MIC [6]: > 595 µM | IC50 [7]: > 20 µM | decrease of NF-κB activity [8]: approximately 9% | anti-inflammatory potential (LPS-induced NF-κB activation), in words [8]: more potent than the parental cinnamic acid | RM (MeOH:H2O) [9]: 0.4320 | RM (pH 7.4) [9]: 0.4138 | RM (100% MeOH) [9]: −0.5541

O=C(/C=C/c1ccccc1)Nc1ccc([N+](=O)[O-])c(C(F)(F)F)c1 [Compound 18, (2E)-N-[4-Nitro-3-(trifluoromethyl)phenyl]-3-phenylprop-2-enamide]
MIC [1]: > 381 µM | Logk [2]: 0.5004 | MIC [3, 12]: > 762 µM | chromatographic logD ([4]; pH 6.5): 0.51 | chromatographic logD ([4]; pH 7.4): 0.557 | MIC [5]: > 762 µM | MIC [6]: > 762 µM | IC50 [7]: > 20 µM | decrease of NF-κB activity [8]: approximately 9% | RM (MeOH:H2O) [9]: 0.6927 | RM (pH 7.4) [9]: 0.6160 | RM (100% MeOH) [9]: −0.4804
